Key:
[1] = design: species or system Wistar rats; settings: rat, in vivo, po
Text: Suzhou Zelgen Biopharmaceuticals Co., Ltd. Jaktinib Hydrochloride Tablets Chemical Drug Class 1 New Drug chromosomal structural aberrations in CHL cells. Therefore, the results of the chromosomal aberration test were negative.
Mouse Bone Marrow Micronucleus Test
A mouse bone marrow micronucleus test of ZG0128 has been performed. After multiple doses of ZG0128 are given to mice via oral gavage, the incidence of micronucleated polychromatic erythrocytes in the bone marrow is observed to estimate the damage to chromosomal integrity in bone marrow cells and subsequent abnormality of chromosome segregation, so as to determine the presence of genotoxicity. The results […]
were observed every day. […] The body weight of female rats was measured twice a week before pregnancy and on days 0, 2, 4, 6, 9, 12, and 15 of gestation after successful mating. The food intake of male and female rats was measured once a week before mating. After successful mating, the food intake of female rats was measured on days 0, 6, and 12 of gestation. […] In addition, the weights of testes, epididymides, prostate, and seminal vesicles were measured to calculate the organ coefficients. […] In addition, the weights of the pregnant uterus, placenta and uterus, placenta, ovaries, brain, and the total weight of live fetuses were measured. […]

[2] = PK, single intragastric dose; format: in vivo, beagles
Method: Overall 2.0 (1.0-2.0) 0.593 ± 0.194 2.96 ± 1.07 3.03 ± 1.09 3.99 ± 0.40 2.24 ± 0.88 30.5 Male 2.0 (2.0-8.0) 0.765 ± 0.105 5.76 ± 3.51 5.82 ± 3.48 5.28 ± 2.11 2.31 ± 0.89 […] 61 Male 8.0 (4.0-12.0) 1.49 ± 0.33 16.6 ± 8.2 16.7 ± 8.2 7.73 ± 2.48 3.72 ± 0.79 Female 2.0 (2.0-6.0) 1.73 ± 0.75 17.4 ± 8.9 17.4 ± 8.9 6.33 ± 1.62 2.54 ± 1.06 […] (multiple […] Pharmacokinetics of single dose intravenous administration in beagles. After intravenous administration of 12.2 mg ZG0128 (the average weight of the beagles was about 10 kg, so the dose given equals to 1.22 mg/kg ZG0128), ZG0163 […] 3.49 L/kg. […] Pharmacokinetics of single-dose intragastric administration. […] mg/ZG0128). […] The plasma […] There were large individual differences in plasma exposure AUC0-t in dogs. The pharmacokinetic differences between genders could not be determined. […] increased proportionally with the increasing dosage. The average Tmax of metabolite ZG0245 was 2.0 h.

JAK2 = JAK2 (Homo sapiens, UniProt O60674); experiment: Phosphorylation of STAT3 by JAK2; format: biochemical
Sequence of JAK2 (O60674 whole entry): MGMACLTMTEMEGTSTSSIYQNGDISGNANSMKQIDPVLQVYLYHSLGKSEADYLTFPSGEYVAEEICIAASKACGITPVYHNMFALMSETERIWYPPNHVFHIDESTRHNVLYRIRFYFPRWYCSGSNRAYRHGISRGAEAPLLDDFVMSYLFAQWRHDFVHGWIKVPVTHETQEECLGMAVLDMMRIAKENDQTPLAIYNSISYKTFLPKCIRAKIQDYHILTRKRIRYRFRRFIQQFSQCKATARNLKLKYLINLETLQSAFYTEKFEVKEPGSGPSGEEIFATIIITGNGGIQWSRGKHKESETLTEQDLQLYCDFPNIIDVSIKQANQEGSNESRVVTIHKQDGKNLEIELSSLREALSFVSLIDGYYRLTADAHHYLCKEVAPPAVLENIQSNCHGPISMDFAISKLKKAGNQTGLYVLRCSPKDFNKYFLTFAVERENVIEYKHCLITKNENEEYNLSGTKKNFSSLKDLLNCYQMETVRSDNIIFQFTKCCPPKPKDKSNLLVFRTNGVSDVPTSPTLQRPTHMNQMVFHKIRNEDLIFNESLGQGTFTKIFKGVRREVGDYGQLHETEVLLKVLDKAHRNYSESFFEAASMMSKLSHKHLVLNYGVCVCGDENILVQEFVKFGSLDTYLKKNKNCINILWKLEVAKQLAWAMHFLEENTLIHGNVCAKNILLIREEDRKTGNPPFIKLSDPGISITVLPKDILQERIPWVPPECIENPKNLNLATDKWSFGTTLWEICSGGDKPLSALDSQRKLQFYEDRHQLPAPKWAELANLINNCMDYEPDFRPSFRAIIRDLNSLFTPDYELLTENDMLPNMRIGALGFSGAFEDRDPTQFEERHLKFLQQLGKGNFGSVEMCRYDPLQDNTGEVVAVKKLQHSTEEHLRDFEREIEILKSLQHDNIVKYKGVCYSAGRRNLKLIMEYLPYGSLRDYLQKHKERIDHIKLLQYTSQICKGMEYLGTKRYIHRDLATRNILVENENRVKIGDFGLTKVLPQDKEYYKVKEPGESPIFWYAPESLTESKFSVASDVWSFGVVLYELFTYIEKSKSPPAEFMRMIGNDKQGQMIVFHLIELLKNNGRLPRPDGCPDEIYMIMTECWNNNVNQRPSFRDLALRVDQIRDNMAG
Text: Suzhou Zelgen Biopharmaceuticals Co., Ltd. Jaktinib Hydrochloride Tablets Chemical Drug Class 1 New Drug has been completed. The ongoing toxicity tests include a long-term 39-week toxicity test in Beagle dogs by oral administration, a reproductive toxicity test in rats during the teratogenic sensitive period, and a reproductive toxicity test in rabbits during the teratogenic sensitive period.
Preclinical Pharmacodynamic Study
Study on the in vitro Pharmacodynamic Effects of ZG0163 at the […]
In this study, the effects of ZG0163 was similar to those of positive control compounds, ZG0164 and ZG0178.
Study on the in vitro Pharmacodynamic Effects of ZG0163 at the Cellular Level (Ba/F3-EpoR-JAK2V617F cells)
JAK2V617F cell line, the compound ZG0163 was able to induce apoptosis of pathogenic cells and eliminate abnormal cell proliferation by inhibiting the JAK-STAT signaling pathway, thus achieving treatment efficacy in myeloproliferative neoplasms. […]
cell line, manifested as significant inhibition of phosphorylation of JAK2 and its downstream signaling proteins ERK and STAT5. The effects of ZG0163 was similar to those of positive control compounds, ZG0164 and ZG0178.
EpoR-JAK2V617F, which was similar to those of positive control compounds, ZG0164

In the case of Cl.Cl.O.[2H]C1([2H])COCC([2H])([2H])N1c1ccc(Nc2nccc(-c3ccc(C(=O)NCC#N)cc3)n2)cc1 [ZG0128, Jaktinib Dihydrochloride Monohydrate], the “NOAEL for reproductive functions and embryonic development” value [1] is reported as 18 mg/kg.
In the case of Jaktinib, the “AUC0-t (mean)” value ([2]; 61 mg ZG0128) is reported as 459 ng·h/mL, the Cmax ([2]; 61 mg ZG0128) is reported as 156 ng/mL and the absolute bioavailability ([2]; 61 mg, by AUC0-t) is reported as 27.2%. The “AUC0-t (mean)” value ([2]; 122 mg ZG0128) was 948 ng·h/mL, the Cmax ([2]; 122 mg ZG0128) was 266 ng/mL and the “AUC0-t (mean)” value ([2]; 244 mg ZG0128) was 1728 ng·h/mL. For the same compound, the Cmax ([2]; 244 mg ZG0128) was 444 ng/mL, the “average Tmax” value ([2]; 1, 2 and 4 tablets (61, 122, 244 mg ZG0128)) was 2.0 h and the “average t1/2, range over doses” value ([2]; 61–244 mg) was 1.31 to 2.49 h. For the same compound, the “exposure as % of the medium dosage group (122 mg/animal)” value ([2]; intragastric 122 mg ZG0128) was 93.0%, the Tmax ([2]; intragastric 122 mg ZG0128 (compared with medium dosage tablet group)) was 1.50 h and the IC50 (JAK2) was roughly 100 nM.
